Legend:
[1] = biological target: KRas G12D (Homo sapiens, UniProt P01116, G12D); experiment: biochemical; settings: Binding to KRas (IC50 nM) G12D, TR-FRET displacement, KRas G12D
[2] = biological target: KRas G12V (Homo sapiens, UniProt P01116, G12V); experiment: biochemical; settings: Binding to KRas (IC50 nM) G12V, TR-FRET displacement, KRas G12V
Chain of KRas G12V (P01116 1-169 isoform P01116-2 G12V): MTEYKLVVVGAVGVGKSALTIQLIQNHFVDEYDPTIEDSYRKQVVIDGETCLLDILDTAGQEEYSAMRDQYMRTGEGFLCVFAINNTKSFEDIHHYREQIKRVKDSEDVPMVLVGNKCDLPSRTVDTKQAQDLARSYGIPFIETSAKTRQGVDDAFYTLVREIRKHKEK

Chain of KRas G12D (P01116 1-169 isoform P01116-2 G12D): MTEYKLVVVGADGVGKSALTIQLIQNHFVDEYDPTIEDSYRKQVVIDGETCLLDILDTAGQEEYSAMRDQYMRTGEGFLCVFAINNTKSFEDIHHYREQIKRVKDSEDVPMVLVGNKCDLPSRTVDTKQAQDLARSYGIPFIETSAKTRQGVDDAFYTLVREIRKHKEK

SMILES	IC50 [1]	IC50 [2]
CCc1cccc2cccc(N3CCc4c(nc(OCC5(CN(C)C)CC5)nc4NCCc4nncn4C(C)C)C3)c12 [Example 571, 2-((1-((dimethylamino)methyl)cyclopropyl)methoxy)-7-(8-ethylnaphthalen-1-yl)-N-(2-(4-isopropyl-4H-1,2,4-triazol-3-yl)ethyl)-5,6,7,8-tetrahydropyrido[3,4-d]pyrimidin-4-amine]	75700 nM	6720 nM
CCc1cccc2cccc(N3CCc4c(nc(OCC5(CN(C)C)CC5)nc4NCCc4nnc5ccccn45)C3)c12 [Example 572, N-(2-([1,2,4]triazolo[4,3-a]pyridin-3-yl)ethyl)-2-((1-((dimethylamino)methyl)cyclopropyl)methoxy)-7-(8-ethylnaphthalen-1-yl)-5,6,7,8-tetrahydropyrido[3,4-d]pyrimidin-4-amine]	89400 nM	4560 nM
CCc1cccc2cccc(N3CCc4c(nc(OCC5(CN(C)C)CC5)nc4NCC4(NC(=O)OC(C)(C)C)CCOC4)C3)c12 (stereo not shown) [Example 573, tert-butyl (3-(((2-((1-((dimethylamino)methyl)cyclopropyl)methoxy)-7-(8-ethylnaphthalen-1-yl)-5,6,7,8-tetrahydropyrido[3,4-d]pyrimidin-4-yl)amino)methyl)tetrahydrofuran-3-yl)carbamate]	96000 nM	7840 nM
CCc1cccc2cccc(N3CCc4c(nc(OCC5(CN(C)C)CC5)nc4N4CCCOC(CC)C4)C3)c12 (stereo not shown) [Example 663, 1-(1-(((4-(2-ethyl-1,4-oxazepan-4-yl)-7-(8-ethylnaphthalen-1-yl)-5,6,7,8-tetrahydropyrido[3,4-d]pyrimidin-2-yl)oxy)methyl)cyclopropyl)-N,N-dimethylmethanamine]	2310 nM	1420 nM
CCc1cccc2cccc(N3CCc4c(nc(OCC5(CN(C)C)CC5)nc4N4CCOCC(C)C4)C3)c12 (stereo not shown) [Example 664, 1-(1-(((7-(8-ethylnaphthalen-1-yl)-4-(6-methyl-1,4-oxazepan-4-yl)-5,6,7,8-tetrahydropyrido[3,4-d]pyrimidin-2-yl)oxy)methyl)cyclopropyl)-N,N-dimethylmethanamine]	254 nM	317 nM
CCc1cccc2cccc(N3CCc4c(nc(OCC5(CN(C)C)CC5)nc4N4CCOCC(O)C4)C3)c12 (stereo not shown) [Example 666, 4-(2-((1-((dimethylamino)methyl)cyclopropyl)methoxy)-7-(8-ethylnaphthalen-1-yl)-5,6,7,8-tetrahydropyrido[3,4-d]pyrimidin-4-yl)-1,4-oxazepan-6-ol]	340 nM	238 nM
CCc1cccc2cccc(N3CCc4c(nc(OCC5(CN(C)C)CC5)nc4N4CCCOC(C)C4)C3)c12 (stereo not shown) [Example 667, 1-(1-(((7-(8-ethylnaphthalen-1-yl)-4-(2-methyl-1,4-oxazepan-4-yl)-5,6,7,8-tetrahydropyrido[3,4-d]pyrimidin-2-yl)oxy)methyl)cyclopropyl)-N,N-dimethylmethanamine]	223 nM	243 nM
CCc1cccc2cccc(N3CCc4c(nc(OCC5(CN(C)C)CC5)nc4N(C)Cc4nncn4C)C3)c12 [Example 668, 2-((1-((dimethylamino)methyl)cyclopropyl)methoxy)-7-(8-ethylnaphthalen-1-yl)-N-methyl-N-((4-methyl-4H-1,2,4-triazol-3-yl)methyl)-5,6,7,8-tetrahydropyrido[3,4-d]pyrimidin-4-amine]	8990 nM	2050 nM
CCc1cccc2cccc(N3CCc4c(nc(OCC5(CN(C)C)CC5)nc4N4CCCOCC4)C3)c12 [Example 669, 1-(1-(((7-(8-ethylnaphthalen-1-yl)-4-(1,4-oxazepan-4-yl)-5,6,7,8-tetrahydropyrido[3,4-d]pyrimidin-2-yl)oxy)methyl)cyclopropyl)-N,N-dimethylmethanamine]	190 nM	199 nM
CCc1cccc2cccc(N3CCc4c(nc(OCC5(CN(C)C)CC5)nc4N4CCOCC(CC)C4)C3)c12 (stereo not shown) [Example 672, 1-(1-(((4-(6-ethyl-1,4-oxazepan-4-yl)-7-(8-ethylnaphthalen-1-yl)-5,6,7,8-tetrahydropyrido[3,4-d]pyrimidin-2-yl)oxy)methyl)cyclopropyl)-N,N-dimethylmethanamine]	1280 nM	1440 nM
CCc1cccc2cccc(N3CCc4c(nc(OCC5(CN(C)C)CC5)nc4NCc4ncn(C(C)C)n4)C3)c12 [Example 673, 2-((1-((dimethylamino)methyl)cyclopropyl)methoxy)-7-(8-ethylnaphthalen-1-yl)-N-((1-isopropyl-1H-1,2,4-triazol-3-yl)methyl)-5,6,7,8-tetrahydropyrido[3,4-d]pyrimidin-4-amine]	8420 nM	2440 nM

Next, values leading:

IC50 [1]	IC50 [2]	SMILES
197 nM	210 nM	CCc1cccc2cccc(N3CCc4c(nc(OCC5(CN(C)C)CC5)nc4N4CCOCC(CO)C4)C3)c12 (stereo not shown) [Example 678, (4-(2-((1-((dimethylamino)methyl)cyclopropyl)methoxy)-7-(8-ethylnaphthalen-1-yl)-5,6,7,8-tetrahydropyrido[3,4-d]pyrimidin-4-yl)-1,4-oxazepan-6-yl)methanol]
5890 nM	3190 nM	CCc1cccc2cccc(N3CCc4c(nc(OCC5(CN(C)C)CC5)nc4N4CCCC(c5c[nH]nn5)C4)C3)c12 (stereo not shown) [Example 679, 1-(1-(((4-(3-(1H-1,2,3-triazol-4-yl)piperidin-1-yl)-7-(8-ethylnaphthalen-1-yl)-5,6,7,8-tetrahydropyrido[3,4-d]pyrimidin-2-yl)oxy)methyl)cyclopropyl)-N,N-dimethylmethanamine]
5490 nM	3130 nM	CCc1cccc2cccc(N3CCc4c(nc(OCC5(CN(C)C)CC5)nc4N4CCCC(c5c[nH]cn5)C4)C3)c12 (stereo not shown) [Example 680, 1-(1-(((4-(3-(1H-imidazol-4-yl)piperidin-1-yl)-7-(8-ethylnaphthalen-1-yl)-5,6,7,8-tetrahydropyrido[3,4-d]pyrimidin-2-yl)oxy)methyl)cyclopropyl)-N,N-dimethylmethanamine]
3830 nM	3220 nM	CCc1cccc2cccc(N3CCc4c(nc(OCC5(CN(C)C)CC5)nc4N4CCCC(c5ccon5)C4)C3)c12 (stereo not shown) [Example 681, 1-(1-(((7-(8-ethylnaphthalen-1-yl)-4-(3-(isoxazol-3-yl)piperidin-1-yl)-5,6,7,8-tetrahydropyrido[3,4-d]pyrimidin-2-yl)oxy)methyl)cyclopropyl)-N,N-dimethylmethanamine]
1610 nM	1760 nM	CCc1cccc2cccc(N3CCc4c(nc(OCC5(CN(C)C)CC5)nc4N4CCCC(n5cccn5)C4)C3)c12 (stereo not shown) [Example 682, 1-(1-(((4-(3-(1H-pyrazol-1-yl)piperidin-1-yl)-7-(8-ethylnaphthalen-1-yl)-5,6,7,8-tetrahydropyrido[3,4-d]pyrimidin-2-yl)oxy)methyl)cyclopropyl)-N,N-dimethylmethanamine]
1650 nM	1860 nM	CCc1cccc2cccc(N3CCc4c(nc(OCC5(CN(C)C)CC5)nc4N4CCCC(c5ncc[nH]5)C4)C3)c12 (stereo not shown) [Example 685, 1-(1-(((4-(3-(1H-imidazol-2-yl)piperidin-1-yl)-7-(8-ethylnaphthalen-1-yl)-5,6,7,8-tetrahydropyrido[3,4-d]pyrimidin-2-yl)oxy)methyl)cyclopropyl)-N,N-dimethylmethanamine]
5250 nM	4520 nM	CCc1cccc2cccc(N3CCc4c(nc(OCC5(CN(C)C)CC5)nc4NCc4nnc5n4CCCCC5)C3)c12 [Example 686, 2-((1-((dimethylamino)methyl)cyclopropyl)methoxy)-7-(8-ethylnaphthalen-1-yl)-N-((6,7,8,9-tetrahydro-5H-[1,2,4]triazolo[4,3-a]azepin-3-yl)methyl)-5,6,7,8-tetrahydropyrido[3,4-d]pyrimidin-4-amine]
10800 nM	6230 nM	CCc1cccc2cccc(N3CCc4c(nc(OCC5(CN(C)C)CC5)nc4N4CCCC(c5nc(C)c(C)[nH]5)C4)C3)c12 (stereo not shown) [Example 687, 1-(1-(((4-(3-(4,5-dimethyl-1H-imidazol-2-yl)piperidin-1-yl)-7-(8-ethylnaphthalen-1-yl)-5,6,7,8-tetrahydropyrido[3,4-d]pyrimidin-2-yl)oxy)methyl)cyclopropyl)-N,N-dimethylmethanamine]
7420 nM	4310 nM	CCc1cccc2cccc(N3CCc4c(nc(OCC5(CN(C)C)CC5)nc4N4CCCC(c5ccn(C)n5)C4)C3)c12 (stereo not shown) [Example 689, 1-(1-(((7-(8-ethylnaphthalen-1-yl)-4-(3-(1-methyl-1H-pyrazol-3-yl)piperidin-1-yl)-5,6,7,8-tetrahydropyrido[3,4-d]pyrimidin-2-yl)oxy)methyl)cyclopropyl)-N,N-dimethylmethanamine]
5440 nM	1360 nM	CCc1cccc2cccc(N3CCc4c(nc(OCC5(CN(C)C)CC5)nc4N4CCCC(c5nc(=O)[nH][nH]5)C4)C3)c12 (stereo not shown) [Example 690, 5-(1-(2-((1-((dimethylamino)methyl)cyclopropyl)methoxy)-7-(8-ethylnaphthalen-1-yl)-5,6,7,8-tetrahydropyrido[3,4-d]pyrimidin-4-yl)piperidin-3-yl)-1,2-dihydro-3H-1,2,4-triazol-3-one]
7300 nM	5300 nM	CCc1cccc2cccc(N3CCc4c(nc(OCC5(CN(C)C)CC5)nc4NCc4nnc(C5CCOC5)[nH]4)C3)c12 (stereo not shown) [Example 691, 2-((1-((dimethylamino)methyl)cyclopropyl)methoxy)-7-(8-ethylnaphthalen-1-yl)-N-((5-(tetrahydrofuran-3-yl)-4H-1,2,4-triazol-3-yl)methyl)-5,6,7,8-tetrahydropyrido[3,4-d]pyrimidin-4-amine]
16100 nM	8850 nM	CCc1cccc2cccc(N3CCc4c(nc(OCC5(CN(C)C)CC5)nc4N4CCCC(c5nccn5C)C4)C3)c12 (stereo not shown) [Example 692, 1-(1-(((7-(8-ethylnaphthalen-1-yl)-4-(3-(1-methyl-1H-imidazol-2-yl)piperidin-1-yl)-5,6,7,8-tetrahydropyrido[3,4-d]pyrimidin-2-yl)oxy)methyl)cyclopropyl)-N,N-dimethylmethanamine]

Reference: patent US20250368649A1, “TETRAHYDROPYRIDOPYRIMIDINE PAN-KRAS INHIBITORS” (Mirati Therapeutics, Inc., priority 2022, published 2025)
